This passage reports AC50 results from ChEMBL document CHEMBL5291721, “A preclinical secondary pharmacology resource illuminates target-adverse drug reaction associations of marketed drugs” (Nat Commun, 2023).

Molecules are shown by their SMILES.

A word on the AC50: it is the concentration giving half of the maximal activity seen.

In one experiment the target is T1, Progesterone receptor (Homo sapiens, UniProt P06401).
T1 sequence (P06401 whole entry): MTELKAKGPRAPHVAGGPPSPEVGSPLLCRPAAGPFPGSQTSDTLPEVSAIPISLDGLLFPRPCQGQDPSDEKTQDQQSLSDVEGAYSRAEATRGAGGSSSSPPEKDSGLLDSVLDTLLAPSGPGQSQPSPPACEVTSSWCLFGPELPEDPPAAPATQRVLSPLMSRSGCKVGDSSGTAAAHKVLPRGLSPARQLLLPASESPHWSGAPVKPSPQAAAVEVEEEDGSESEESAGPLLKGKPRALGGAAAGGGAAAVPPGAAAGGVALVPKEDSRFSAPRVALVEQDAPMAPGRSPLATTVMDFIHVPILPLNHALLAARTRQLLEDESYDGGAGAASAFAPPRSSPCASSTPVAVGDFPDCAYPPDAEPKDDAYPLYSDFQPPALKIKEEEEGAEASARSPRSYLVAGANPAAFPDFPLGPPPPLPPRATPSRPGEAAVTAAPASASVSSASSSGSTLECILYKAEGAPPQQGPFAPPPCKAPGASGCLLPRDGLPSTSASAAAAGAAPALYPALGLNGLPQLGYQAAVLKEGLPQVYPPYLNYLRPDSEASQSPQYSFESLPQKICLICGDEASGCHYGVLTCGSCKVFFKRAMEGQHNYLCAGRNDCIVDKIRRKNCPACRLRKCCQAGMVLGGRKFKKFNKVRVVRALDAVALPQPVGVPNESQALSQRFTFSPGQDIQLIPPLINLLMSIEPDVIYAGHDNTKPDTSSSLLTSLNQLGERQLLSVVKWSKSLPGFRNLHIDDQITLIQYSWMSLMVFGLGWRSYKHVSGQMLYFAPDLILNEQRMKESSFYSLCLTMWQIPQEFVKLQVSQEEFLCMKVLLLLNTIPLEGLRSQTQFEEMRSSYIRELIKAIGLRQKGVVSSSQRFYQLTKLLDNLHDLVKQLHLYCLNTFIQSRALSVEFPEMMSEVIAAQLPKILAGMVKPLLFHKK
It is filed as functional.

Experiment [1] addresses T2, Type-1 angiotensin II receptor (Homo sapiens, UniProt P30556).
T2 sequence (P30556 whole entry): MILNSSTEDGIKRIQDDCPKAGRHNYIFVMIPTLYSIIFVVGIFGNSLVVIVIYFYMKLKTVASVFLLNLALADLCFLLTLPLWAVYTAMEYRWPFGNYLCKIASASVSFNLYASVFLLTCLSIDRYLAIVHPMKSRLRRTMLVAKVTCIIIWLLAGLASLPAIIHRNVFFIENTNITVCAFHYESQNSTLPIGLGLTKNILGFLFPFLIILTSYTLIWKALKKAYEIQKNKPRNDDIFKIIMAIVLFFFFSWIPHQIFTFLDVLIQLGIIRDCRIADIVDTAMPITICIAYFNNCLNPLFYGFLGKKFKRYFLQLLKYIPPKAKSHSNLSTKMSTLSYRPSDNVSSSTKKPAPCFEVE

For experiment [2], the target named is T3, Muscarinic acetylcholine receptor M2 (Homo sapiens, UniProt P08172).
T3 sequence (P08172 whole entry): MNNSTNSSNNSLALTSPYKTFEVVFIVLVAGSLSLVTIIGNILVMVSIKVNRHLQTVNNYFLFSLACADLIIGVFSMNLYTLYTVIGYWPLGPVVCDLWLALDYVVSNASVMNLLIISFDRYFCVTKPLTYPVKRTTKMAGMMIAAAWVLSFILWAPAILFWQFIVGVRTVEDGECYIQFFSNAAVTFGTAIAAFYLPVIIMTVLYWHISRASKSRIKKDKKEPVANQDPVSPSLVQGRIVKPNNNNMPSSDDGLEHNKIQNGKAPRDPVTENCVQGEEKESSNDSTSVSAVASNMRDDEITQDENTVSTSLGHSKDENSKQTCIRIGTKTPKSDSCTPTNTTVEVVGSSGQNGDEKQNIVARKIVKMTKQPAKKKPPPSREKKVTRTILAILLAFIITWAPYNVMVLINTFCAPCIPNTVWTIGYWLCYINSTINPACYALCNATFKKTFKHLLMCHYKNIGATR
Type of experiment: functional, cell-based.

Experiment [3] addresses 5-hydroxytryptamine receptor 2B (Homo sapiens, UniProt P41595). It is filed as functional, cell-based.
Experiment [4] deals with T4, 5-hydroxytryptamine receptor 1A (Homo sapiens, UniProt P08908).
T4 sequence (P08908 whole entry): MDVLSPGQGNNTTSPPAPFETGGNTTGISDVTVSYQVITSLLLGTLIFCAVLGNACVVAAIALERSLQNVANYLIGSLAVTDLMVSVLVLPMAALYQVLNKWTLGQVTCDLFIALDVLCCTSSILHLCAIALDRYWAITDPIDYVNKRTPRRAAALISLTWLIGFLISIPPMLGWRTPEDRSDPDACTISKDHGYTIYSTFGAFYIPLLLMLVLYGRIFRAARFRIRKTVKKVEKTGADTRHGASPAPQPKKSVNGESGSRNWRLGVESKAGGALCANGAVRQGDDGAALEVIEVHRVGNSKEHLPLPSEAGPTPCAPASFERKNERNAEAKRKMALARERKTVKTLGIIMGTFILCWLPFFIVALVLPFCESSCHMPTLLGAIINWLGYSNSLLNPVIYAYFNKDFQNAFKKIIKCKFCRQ
It is filed as functional, cell-based.

In experiment [5] the target is T5, Alpha-2C adrenergic receptor (Homo sapiens, UniProt P18825).
T5 sequence (P18825 whole entry): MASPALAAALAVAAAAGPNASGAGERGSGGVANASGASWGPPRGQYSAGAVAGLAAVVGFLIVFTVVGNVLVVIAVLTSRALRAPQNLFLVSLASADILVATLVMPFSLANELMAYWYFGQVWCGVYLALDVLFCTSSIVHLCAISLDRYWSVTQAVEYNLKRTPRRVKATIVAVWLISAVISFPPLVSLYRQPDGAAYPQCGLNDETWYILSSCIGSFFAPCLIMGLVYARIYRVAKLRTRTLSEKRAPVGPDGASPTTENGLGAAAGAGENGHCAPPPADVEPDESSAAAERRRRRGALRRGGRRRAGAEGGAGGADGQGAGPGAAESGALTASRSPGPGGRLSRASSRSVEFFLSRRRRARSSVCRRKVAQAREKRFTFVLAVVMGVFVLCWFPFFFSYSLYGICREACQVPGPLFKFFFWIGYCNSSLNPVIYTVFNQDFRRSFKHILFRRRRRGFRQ
Type of experiment: functional.
Further: assay procedure not described here.

Chain of 5-hydroxytryptamine receptor 2B (P41595 whole entry): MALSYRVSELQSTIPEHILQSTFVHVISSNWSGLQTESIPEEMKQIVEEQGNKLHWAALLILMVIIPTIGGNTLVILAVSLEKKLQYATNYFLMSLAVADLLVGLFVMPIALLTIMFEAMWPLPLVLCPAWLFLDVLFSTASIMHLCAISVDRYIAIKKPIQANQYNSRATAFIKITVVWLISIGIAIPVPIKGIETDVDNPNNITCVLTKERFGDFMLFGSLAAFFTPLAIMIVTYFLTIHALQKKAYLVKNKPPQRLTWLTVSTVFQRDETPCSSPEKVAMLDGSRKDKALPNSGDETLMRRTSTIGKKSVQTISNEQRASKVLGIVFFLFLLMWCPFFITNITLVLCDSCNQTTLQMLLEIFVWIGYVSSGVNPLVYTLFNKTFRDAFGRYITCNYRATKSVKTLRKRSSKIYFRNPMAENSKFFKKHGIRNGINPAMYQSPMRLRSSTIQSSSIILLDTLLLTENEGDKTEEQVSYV

As to `CC1(C)S[C@@H]2[C@H](NC(=O)[C@H](N)c3ccc(O)cc3)C(=O)N2[C@H]1C(=O)O` [AMOXICILLIN], the AC50 (at Progesterone receptor; in experiment [1]; in experiment [2]; in experiment [3]; in experiment [4]; in experiment [5]) was more than 30 µM in each case.

Consider `C=C(C)[C@@H]1CCC(C)=C[C@H]1c1c(O)cc(CCCCC)cc1O` [CANNABIDIOL], for which the AC50 is more than 30 µM at Progesterone receptor; more than 30 µM in experiment [1]; more than 0.3 µM in experiment [2]; more than 30 µM in experiment [3]; more than 10 µM in experiment [4]; more than 30 µM in experiment [5].

Consider `COC(=O)[C@H](c1ccccc1Cl)N1CCc2sccc2C1` [CLOPIDOGREL], for which the AC50 was more than 30 µM on Progesterone receptor; more than 30 µM in experiment [1]; 27 µM in experiment [2]; more than 30 µM in experiment [3]; more than 30 µM in experiment [4]; more than 30 µM in experiment [5].

As to `C#Cc1cccc(Nc2ncnc3cc(OCCOC)c(OCCOC)cc23)c1` [ERLOTINIB], the AC50 (at Progesterone receptor; in experiment [1]; in experiment [2]; in experiment [3]; in experiment [4]; in experiment [5]) was more than 30 µM in each case.

Turning to `CC1(C)O[C@@H]2C[C@H]3[C@@H]4C[C@H](F)C5=CC(=O)C=C[C@]5(C)[C@H]4[C@@H](O)C[C@]3(C)[C@]2(C(=O)CO)O1` [FLUNISOLIDE], the AC50 on Progesterone receptor was 0.64 µM; in experiment [1] it was more than 30 µM; in experiment [2], more than 30 µM; in experiment [3], more than 30 µM; in experiment [4], more than 30 µM; in experiment [5] it was more than 30 µM.

Turning to `Nc1nc(O)c2ncn(COC(CO)CO)c2n1` [GANCICLOVIR], the AC50 (at Progesterone receptor; in experiment [1]; in experiment [2]; in experiment [3]; in experiment [4]; in experiment [5]) was more than 30 µM each time.

As to `C[C@H]1Oc2cc(cnc2N)-c2c(nn(C)c2C#N)CN(C)C(=O)c2ccc(F)cc21` [LORLATINIB], the concentration at half-maximal activity (AC50) (at Progesterone receptor; in experiment [1]; in experiment [2]; in experiment [3]; in experiment [4]; in experiment [5]) was more than 30 µM throughout.

Regarding `CC[C@@H](CO)NC(=O)[C@@H]1C=C2c3cccc4[nH]cc(c34)C[C@H]2N(C)C1` [METHYLERGONOVINE], the AC50 at Progesterone receptor is more than 30 µM; in experiment [1], more than 30 µM; in experiment [2] it was more than 30 µM; in experiment [3] it was 0.0257 µM; in experiment [4], 0.0144 µM; in experiment [5] it was 1.7 µM.

On to `CN(C)c1cc(CNCC(C)(C)C)c(O)c2c1C[C@H]1C[C@H]3[C@H](N(C)C)C(O)=C(C(N)=O)C(=O)[C@@]3(O)C(O)=C1C2=O` [OMADACYCLINE], for which the AC50 on Progesterone receptor is more than 30 µM; in experiment [1], more than 30 µM; in experiment [2] it was 24.3 µM; in experiment [3] it was more than 30 µM; in experiment [4], more than 30 µM; in experiment [5] it was more than 30 µM.

Take `COc1ccc(Cc2nccc3cc(OC)c(OC)cc23)cc1OC` [PAPAVERINE]: the AC50 (at Progesterone receptor; in experiment [1]; in experiment [2]; in experiment [3]; in experiment [4]; in experiment [5]) was more than 30 µM each time.

For `O=C1NC(=O)C(c2ccccc2)(c2ccccc2)N1` [PHENYTOIN], the AC50 (on Progesterone receptor; in experiment [1]; in experiment [2]; in experiment [3]; in experiment [4]; in experiment [5]) was more than 30 µM each time.

Turning to `CC(C)C[C@H](CN)CC(=O)O` [PREGABALIN], the AC50 on Progesterone receptor is more than 30 µM; in experiment [1] it was more than 30 µM; in experiment [2], more than 30 µM; in experiment [3] it was 28 µM; in experiment [4], more than 30 µM; in experiment [5], more than 30 µM.

On to `CCOc1cc(CC(=O)N[C@@H](CC(C)C)c2ccccc2N2CCCCC2)ccc1C(=O)O` [REPAGLINIDE], for which the half-maximal activity concentration (AC50) on Progesterone receptor is more than 30 µM; in experiment [1], more than 30 µM; in experiment [2] it was more than 30 µM; in experiment [3], more than 10 µM; in experiment [4] it was more than 30 µM; in experiment [5], more than 30 µM.

With `NC(=O)c1ncn([C@@H]2O[C@H](CO)[C@@H](O)[C@H]2O)n1` [RIBAVIRIN], the AC50 (on Progesterone receptor; in experiment [1]; in experiment [2]; in experiment [3]; in experiment [4]; in experiment [5]) was more than 10 µM each time.

`O=C(Nc1c(Cl)cncc1Cl)c1ccc(OC(F)F)c(OCC2CC2)c1` [ROFLUMILAST]: the AC50 (at Progesterone receptor; in experiment [1]; in experiment [2]; in experiment [3]; in experiment [4]; in experiment [5]) was more than 30 µM in each case.

As for `CCCN(CCC)CCc1cccc2c1CC(=O)N2` [ROPINIROLE], the AC50 on Progesterone receptor is more than 30 µM; in experiment [1], more than 30 µM; in experiment [2], 23 µM; in experiment [3], 2.76 µM; in experiment [4], more than 30 µM; in experiment [5] it was more than 30 µM.

For `CCCN(CCc1cccs1)[C@H]1CCc2c(O)cccc2C1` [ROTIGOTINE], the AC50 at Progesterone receptor was more than 30 µM; in experiment [1], more than 30 µM; in experiment [2], more than 10 µM; in experiment [3], 0.43 µM; in experiment [4], more than 10 µM; in experiment [5] it was 0.4 µM.
